From ChEMBL document CHEMBL1134994, “Synthesis and in vitro antiprotozoal activity of 5-nitrothiophene-2-carboxaldehyde thiosemicarbazone derivatives” (Bioorg Med Chem Lett, 2002)

Key:
Assay type in all cases: functional, organism-based
Entamoeba histolytica = assay: Inhibitory concentration against Entamoeba histolytica (HK-9) for antiprotozoal activity
Trichomonas vaginalis = assay: Inhibitory concentration against Trichomonas vaginalis (tv-43) for anti-trichomonal activity
Giardia intestinalis = assay: Inhibitory concentration against G. Lamblia (IMSS-0989) for antigiardial activity; details: Giardia duodenalis

SMILES	IC50 (Entamoeba histolytica)	IC50 (Trichomonas vaginalis)	IC50 (Giardia intestinalis)
CCCC/N=C(\S)N/N=C/c1ccc([N+](=O)[O-])s1	12.2 µM	1.49 µM	17.2 µM
CC(C)CN(CC(C)C)/C(S)=N/N=C/c1ccc([N+](=O)[O-])s1	11.6 µM	4.44 µM	12 µM
O=[N+]([O-])c1ccc(/C=N/N=C(\S)N2CCCCCC2)s1	1.71 µM	8.78 µM	8.47 µM
O=[N+]([O-])c1ccc(/C=N/N=C(\S)NC2CCCCC2)s1	2.41 µM	10.7 µM	13.9 µM
CCC/N=C(\S)N/N=C/c1ccc([N+](=O)[O-])s1	15.4 µM	21 µM	57.3 µM
CCCN(CCC)/C(S)=N/N=C/c1ccc([N+](=O)[O-])s1	6.4 µM	4.06 µM	8.2 µM
CN(/C(S)=N/N=C/c1ccc([N+](=O)[O-])s1)C1CCCCC1	8.3 µM	18.3 µM	11.7 µM
CCN(CC)/C(S)=N/N=C/c1ccc([N+](=O)[O-])s1	10.1 µM	6.01 µM	8.03 µM
CC(C)C/N=C(\S)N/N=C/c1ccc([N+](=O)[O-])s1	13.5 µM	6.31 µM	33.3 µM
CC(C)/N=C(\S)N/N=C/c1ccc([N+](=O)[O-])s1	9.6 µM	5.94 µM	26.2 µM
O=[N+]([O-])c1ccc(/C=N/N=C(\S)NC2CCCC2)s1	2.86 µM	3.97 µM	33 µM
Cc1ncc([N+](=O)[O-])n1CCO [METRONIDAZOLE]	2.1 µM	1.92 µM	1.16 µM
